Data taken from ChEMBL document CHEMBL1140703, “Design, synthesis, and biological evaluation of classical and nonclassical 2-amino-4-oxo-5-substituted-6-methylpyrrolo[3,2-d]pyrimidines as dual thymidylate synthase and dihydrofolate reductase inhibitors” (J Med Chem, 2008).

How the values were obtained:
[1] = target: Thymidylate synthase (Escherichia coli, UniProt C3SWJ7); assay: Inhibition of Escherichia coli thymidylate synthase
[2] = Inhibition of Toxoplasma gondii DHFR
[3] = target: T1, Dihydrofolate reductase (Homo sapiens, UniProt P00374)
T1 sequence (P00374 whole entry): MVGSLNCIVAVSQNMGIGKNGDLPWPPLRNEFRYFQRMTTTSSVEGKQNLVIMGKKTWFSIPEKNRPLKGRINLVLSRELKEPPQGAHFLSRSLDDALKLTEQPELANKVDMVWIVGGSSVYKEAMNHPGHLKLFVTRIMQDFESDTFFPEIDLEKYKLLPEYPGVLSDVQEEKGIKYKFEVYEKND

[4] = Inhibition of Toxoplasma gondii thymidylate synthase
[5] = target: Thymidylate synthase (Escherichia coli) (UniProt C3SWJ7); assay: Inhibition of Escherichia coli thymidylate synthase at >20 uM
[6] = tested on: Toxoplasma gondii; assay: Inhibition of Toxoplasma gondii thymidylate synthase at >20 uM
[7] = target: T2, Dihydrofolate reductase (Homo sapiens) (UniProt P00374); assay: Inhibition of human recombinant DHFR at >[…] uM
T2 sequence (whole entry): T1 sequence (P00374 whole entry)

[8] = tested on: Escherichia coli; assay: Inhibition of Escherichia coli DHFR at >[…] uM
[9] = Inhibition of Escherichia coli DHFR
[10] = Selectivity ratio of IC50 for Toxoplasma gondii DHFR over IC50 for human recombinant DHFR
[11] = target: Thymidylate synthase (Homo sapiens, UniProt P04818); assay: Inhibition of human thymidylate synthase
[12] = tested on: Toxoplasma gondii; assay: Inhibition of Toxoplasma gondii thymidylate synthase at >[…] uM
[13] = target: T2, Dihydrofolate reductase (Homo sapiens); assay: Inhibition of human recombinant DHFR at >62 uM
[14] = target: Thymidylate synthase (Escherichia coli) (UniProt C3SWJ7); assay: Inhibition of Escherichia coli thymidylate synthase >[…] uM
[15] = target: Thymidylate synthase (Escherichia coli) (UniProt C3SWJ7); assay: Inhibition of Escherichia coli thymidylate synthase at >[…] uM
[16] = tested on: Escherichia coli; assay: Inhibition of Escherichia coli DHFR at >30 uM

Thymidylate synthase (Escherichia coli), sequence (C3SWJ7 1-264): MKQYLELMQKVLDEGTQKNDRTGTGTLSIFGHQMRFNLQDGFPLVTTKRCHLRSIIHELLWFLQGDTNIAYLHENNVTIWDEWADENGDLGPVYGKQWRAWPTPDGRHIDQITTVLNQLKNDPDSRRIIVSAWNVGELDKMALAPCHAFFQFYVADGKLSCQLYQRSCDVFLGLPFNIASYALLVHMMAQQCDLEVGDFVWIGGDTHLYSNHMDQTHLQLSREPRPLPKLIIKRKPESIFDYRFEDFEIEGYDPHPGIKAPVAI
Thymidylate synthase (Escherichia coli, UniProt C3SWJ7), sequence (C3SWJ7 whole entry): as the sequence (C3SWJ7 1-264) above
Thymidylate synthase (Homo sapiens, UniProt P04818), sequence (P04818 whole entry): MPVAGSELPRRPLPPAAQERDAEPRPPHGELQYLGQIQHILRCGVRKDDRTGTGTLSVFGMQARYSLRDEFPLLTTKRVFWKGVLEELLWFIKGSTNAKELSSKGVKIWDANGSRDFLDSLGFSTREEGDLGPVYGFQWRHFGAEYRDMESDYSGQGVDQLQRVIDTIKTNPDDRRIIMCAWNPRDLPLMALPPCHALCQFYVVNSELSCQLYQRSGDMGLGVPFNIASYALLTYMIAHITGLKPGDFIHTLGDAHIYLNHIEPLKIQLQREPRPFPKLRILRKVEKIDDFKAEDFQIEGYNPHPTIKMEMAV

Row | SMILES | IC50 [3] | inhibition [8] | inhibition [13] | inhibition [16] | IC50 [1] | IC50 [2] | IC50 [4] | inhibition [5] | inhibition [6] | inhibition [7] | IC50 [9] | Ratio IC50 [10] | IC50 [11] | inhibition [12] | inhibition [14] | inhibition [15]
1 | Cc1cc2nc(N)[nH]c(=O)c2n1Cc1cc(Br)cc(Br)c1 | > 24 µM | 0% | – | – | > 20 µM | 24 µM | > 20 µM | 36% | 24% | 0% | > 24 µM | > 1 | 10 µM | – | – | –
2 | Cc1cc2nc(N)[nH]c(=O)c2n1Cc1ccccc1 | > 39 µM | – | – | – | > 39 µM | 3.9 µM | > 39 µM | – | – | – | > 39 µM | > 10 | 20 µM | 0% | – | –
3 | COc1ccc(Cn2c(C)cc3nc(N)[nH]c(=O)c32)cc1 | > 35 µM | 0% | – | – | 15 µM | 3.5 µM | 17 µM | – | – | – | > 35 µM | > 10 | 1.5 µM | – | – | –
4 | Cc1cc2nc(N)[nH]c(=O)c2n1Cc1cc(Cl)cc(Cl)c1 | > 31 µM | 0% | – | – | > 26 µM | 15 µM | > 26 µM | – | – | – | > 31 µM | > 2.1 | > 26 µM | 13% | 15% | 0%
5 | Cc1cc2nc(N)[nH]c(=O)c2n1Cc1ccc([N+](=O)[O-])cc1 | 33 µM | 0% | – | – | 14 µM | 0.33 µM | 28 µM | – | – | – | > 33 µM | 100 | 1.4 µM | – | – | –
6 | Cc1cc2nc(N)[nH]c(=O)c2n1Cc1ccc(C(=O)N[C@@H](CCC(=O)O)C(=O)O)cc1 | 0.12 µM | 23% | – | – | 0.069 µM | 0.023 µM | 0.23 µM | – | – | – | > 23 µM | 5.2 | 0.046 µM | – | – | –
7 | Cc1cc2nc(N)[nH]c(=O)c2n1Cc1ccncc1 | > 37 µM | – | – | – | 12 µM | 20 µM | 15 µM | – | – | – | 39 µM | > 1.8 | 2.3 µM | – | – | –

Continued, in another order:

Row | IC50 [3] | inhibition [8] | inhibition [13] | inhibition [16] | SMILES | IC50 [1] | IC50 [2] | IC50 [4] | inhibition [5] | inhibition [6] | inhibition [7] | IC50 [9] | Ratio IC50 [10] | IC50 [11] | inhibition [12] | inhibition [14] | inhibition [15]
8 | > 37 µM | 0% | – | – | Cc1cc2nc(N)[nH]c(=O)c2n1Cc1ccc(F)cc1 | 31 µM | 1.8 µM | 22 µM | – | – | – | > 37 µM | > 20.5 | 3.7 µM | – | – | –
9 | > 62 µM | – | 0% | – | Cc1[nH]c2nc(N)[nH]c(=O)c2c1Sc1ccc(Cl)c(Cl)c1 | – | – | – | – | – | – | – | – | – | – | – | –
10 | > 32 µM | 0% | – | – | Cc1cc2nc(N)[nH]c(=O)c2n1Cc1ccc(Cl)c(Cl)c1 | 27 µM | 1.6 µM | 27 µM | – | – | – | > 32 µM | > 20 | 5.4 µM | – | – | –
11 | > 54 µM | – | – | – | Cc1[nH]c2nc(N)[nH]c(=O)c2c1Sc1ccc([N+](=O)[O-])cc1 | – | – | – | – | – | – | – | – | – | – | – | –
12 | > 35 µM | 0% | – | – | Cc1cc2nc(N)[nH]c(=O)c2n1Cc1ccc(OC(F)(F)F)cc1 | 7.5 µM | 0.3 µM | 13 µM | – | – | – | > 35 µM | > 117 | 1.3 µM | – | – | –
13 | > 35 µM | – | – | 10% | Cc1cc2nc(N)[nH]c(=O)c2n1Cc1ccc(Br)cc1 | 7.5 µM | 0.27 µM | 18 µM | – | – | – | > 30 µM | > 130 | 1.3 µM | – | – | –
14 | > 35 µM | 0% | – | – | Cc1cc2nc(N)[nH]c(=O)c2n1Cc1ccc(Cl)cc1 | 1.5 µM | 0.35 µM | 17 µM | – | – | – | > 35 µM | > 100 | 2.9 µM | – | – | –
